What all share (assay): inhibition of tumour cell growth, NCI panel, 48 h
Test [1] concerns OVCAR-5 ovarian.
For test [2], the system named is U251 CNS.
The subject of test [3] is RPMI-8226 leukemia.
Test [4] deals with A549 NSCLC.
For test [5], the system named is NCI-H226 lung.
In test [6] the test system is NCI/ADR-RES ovarian.
In test [7] the test system is PC-3 prostate.
Test [8] concerns K-562 leukemia.
Test [9] has as its system CCRF-CEM leukemia.
In test [10] the test system is HOP-62 NSCLC.
For test [11], the system named is RXF 393 renal.
The test system of test [12] is SK-MEL-2 melanoma.

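Cultured in 96-well plates, cells were exposed to test compound for 48 hours across five concentrations. TGI marks complete inhibition of growth.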 Where a SMILES comes first, the peptide text is derived from it. The star is where a group is joined. Boc = CC(C)(C)OC(=O)*; OSu = O=C1CCC(=O)N1O*

Turning to `O=C1CC(C(O)CO)CC(=O)N1` (stereo unspecified), the TGI in test [1], in [2], in test [3], in [4], in test [5] and in test [6] was above 100 µM in each case. Moreover, the TGI in test [7], in [8], in [9] and in [10] was above 100 µM throughout.

Turning to `COc1ccc2nc(-c3ccc(OCc4ccccc4)cc3)ccc2c1`, the TGI in test [1], in test [3], in test [4], in [5], in [8] and in [11] was above 100 µM throughout. For the same compound, the TGI in test [9] and in test [10] was above 100 µM throughout.

Consider `COc1ccc(-c2c(C#N)c(N)n(C3OC(CO)C(O)C(O)C3O)c(=S)c2C#N)cc1` (stereo unspecified), for which the TGI in [1], in test [2], in test [3], in test [4], in test [5] and in [7] was above 100 µM in each case. In addition, the TGI in test [8], in test [11], in test [12], in test [9] and in [10] was above 100 µM each time.

Regarding `COc1ccc(C2C(Cl)C(=O)N2NC(=O)c2ccc(NC(C)=O)cc2)cc1` (stereo unspecified), the TGI in test [1], in test [2], in [4], in test [5], in [8] and in test [11] was above 100 µM each time. The TGI in test [12], in test [9] and in [10] was above 100 µM throughout.

For the compound `CC(C)=CCN1CC(C)C(=O)Nc2cc(Cl)ccc21` (stereo unspecified), the TGI in [1] is above 100 µM; in [2] it was above 100 µM; in test [3], above 100 µM; in test [4], above 100 µM; in test [5], 40.6 µM; in [7], 47.5 µM. Also, the TGI in [8] was above 100 µM; in test [11] it was above 100 µM; in test [12] it was 31.1 µM; in test [9] it was above 100 µM; in [10] it was 81.4 µM.

With `COc1ccc(Nc2[nH]c(C(C)=O)c(N)c2C(=S)Nc2ccccc2)cc1`, the TGI in test [1], in test [2], in test [4], in test [5], in test [6] and in test [8] was above 100 µM throughout. The TGI in test [11] was 77.7 µM; in [12], above 100 µM; in test [9], above 100 µM; in test [10], above 100 µM.

As for `COC1(C)CC2N(C(=O)c3ccccc3)N=C(c3ccccc3)CC2(C)O1` (stereo unspecified), the TGI in [1], in test [3], in test [4], in test [5], in test [8] and in test [12] was above 100 µM throughout. The TGI in test [9] and in [10] was above 100 µM throughout.

For the compound `CC(C)(C)OC(=O)NC(Cc1ccc(O)cc1)C(=O)NC(CCCCN)C(=O)NC(Cc1ccc(O)cc1)C(=O)NC(CCCCN)C(=O)ON1C(=O)CCC1=O` (stereo unspecified) (Boc-YKYK-OSu; configuration not given here), the TGI in test [1], in [2], in test [3], in [4], in [5] and in [7] was above 100 µM throughout. Also, the TGI in [8], in test [11], in test [12], in test [9] and in test [10] was above 100 µM throughout.

On to `O=C1O[C@@H](c2ccccc2)C[C@@H]1CN1CCOCC1`, for which the TGI in [1], in test [2], in [3], in test [4], in [5] and in test [8] was above 100 µM in each case. Also, the TGI in test [11], in test [12], in [9] and in test [10] was above 100 µM throughout.

Take `C[N+](C)(C)CC(=O)N/N=c1\cc(C(=O)Nc2ccc(N=O)cc2C#N)oc2cc(O)ccc12`: the TGI in test [1], in test [2], in test [4], in [5], in test [8] and in test [11] was above 100 µM in each case. Moreover, the TGI in test [12], in test [9] and in test [10] was above 100 µM in each case.

`Cc1c(Cl)cccc1NC(=O)C(=O)C1C(=O)CC(C)(C)CC1=O`: the TGI in [1], in [2], in test [3], in test [4], in test [5] and in test [8] was above 100 µM each time. Moreover, the TGI in test [11], in [12], in test [9] and in test [10] was above 100 µM throughout.

Take `CC1C(c2cc(C(C)(C)C)c(O)c(C(C)(C)C)c2)c2cc3c(cc2OC1N1CCOCC1)OCO3` (stereo unspecified): the TGI in [1] is above 100 µM; in test [3] it was above 100 µM; in test [4], 48 µM; in [6] it was 87.4 µM; in [7], 31.6 µM; in test [8], above 100 µM. In addition, the TGI in test [12] is 67.3 µM; in test [9] it was above 100 µM; in test [10] it was 33.4 µM.

For `Nc1nc2ncc(SCc3ccc(C(=O)NC(CCC(=O)O)C(=O)O)cc3)cc2c(=O)[nH]1` (stereo unspecified), the TGI in test [1], in test [2], in [3], in test [4], in test [5] and in [6] was above 100 µM throughout. Also, the TGI in [7], in [8], in test [12] and in [10] was above 100 µM in each case.

In the case of `N#CCCN(c1ccc(C=Nc2cccc([N+](=O)[O-])c2)cc1)S(=O)(=O)c1ccccc1`, the TGI in test [3], in test [4], in test [5], in test [8], in test [12] and in test [9] was above 100 µM throughout. Also, the TGI in [10] was above 100 µM.

On to `COc1cc2c(cc1OCCCCCOc1cc3c(cc1OC)C(=O)N1CCC[C@H]1C(=O)N3)N=C[C@@H]1CCCN1C2=O`, for which the TGI in test [2] is 0.51 µM; in test [3], 0.179 µM; in test [4] it was above 100 µM; in test [5] it was 0.75 µM; in test [6] it was 33.1 µM; in test [11] it was 0.413 µM. The values for the TGI in test [12] and in test [10] were 0.666 µM and 26.3 µM, respectively.

Turning to `O=C1CC2(C[C@@H]3CCCCCCCCC[C@@H](C3)C2)N1` (stereo partly specified), the TGI in test [1] came to 29.6 µM; in test [2], 30.3 µM; in test [3], 51.1 µM; in test [4] it was 38.4 µM; in [5] it was 30.8 µM; in test [8], 55.1 µM. In addition, the TGI in [11] was 30.9 µM; in test [12], 37.7 µM; in test [9], 37.6 µM; in [10], 32.8 µM.

As to `O=c1[nH]cnc2c(C3OC(CO)C(O)C3O)c[nH]c12` (stereo unspecified), the TGI in test [1], in test [2], in [3], in [4], in [5] and in test [7] was above 100 µM throughout. For the same compound, the TGI in test [8], in test [11], in test [9] and in test [10] was above 100 µM throughout.

As to `O=C(NS(=O)(=O)Nc1ccc(Cl)cc1)OCc1ccc(Cl)cc1Cl`, the TGI in test [1] was 70.3 µM; in test [2], 66.7 µM; in [3], above 100 µM; in test [4], 52.6 µM; in test [6], 49.9 µM; in test [7], above 100 µM. Besides, the TGI in test [8] was above 100 µM; in test [12], 90.2 µM; in test [9], above 100 µM; in test [10], above 100 µM.

As to `COC(=O)c1cc(CC(C)C)c2c(c1)[nH]c1ccccc12`, the TGI in [1], in test [2], in test [4], in test [5], in test [8] and in test [12] was above 100 µM in each case. Further, the TGI in test [9] is above 100 µM.

Take `CC(C)C(Sc1nc(-c2ccccc2)c(-c2ccccc2)[nH]1)C(=O)NNC(=S)Nc1ccccc1` (stereo unspecified): the TGI in test [1] worked out at 32.6 µM; in test [2], 30 µM; in [3], 39.6 µM; in test [4] it was 60.9 µM; in [5], 37.2 µM; in test [12], 36.6 µM. Also, the TGI was found to be 38 µM in test [9] and 39.8 µM in test [10].

Turning to `CCOC(=O)C(OCC1CC=CCC1)Sc1ccccc1` (stereo unspecified), the TGI in test [1], in [2], in test [3], in [4], in test [8] and in [12] was above 100 µM in each case. Besides, the TGI in test [9] and in [10] was above 100 µM throughout.

For the compound `c1ccc(C[P+]2(c3ccccc3)c3ccccc3-c3ccccc32)cc1`, the TGI in test [3], in test [4], in [5], in test [7], in test [8] and in test [11] was above 100 µM throughout. The TGI in test [9] and in test [10] was above 100 µM each time.

As to `CCSc1nnc(CSc2nc(-c3ccccc3)c(-c3ccccc3)[nH]2)n1-c1ccccc1`, the TGI was 30.4 µM in test [1]; 31.7 µM in test [2]; 46.1 µM in [3]; 80.9 µM in [4]; 27.7 µM in test [5]; 56.3 µM in [8]. The TGI in test [11] amounted to 43.5 µM; in test [12], 45.6 µM; in [9], 49.4 µM; in [10] it was 35.2 µM.

As to `CC12CC(c3ccccc3O1)C(C(=O)Nc1ccc(F)cc1)C(=O)N2` (stereo unspecified), the TGI in test [1], in test [2], in test [3], in test [4], in test [6] and in [7] was above 100 µM each time. For the same compound, the TGI in [8], in test [12], in test [9] and in test [10] was above 100 µM in each case.

For the compound `CO[C@@H](C(=O)OC1C=CC2(CC1)C(=O)N(C)c1ccccc12)c1ccccc1` (stereo partly specified), the TGI in test [1], in [2], in test [3], in [4], in test [6] and in [7] was above 100 µM each time. For the same compound, the TGI in test [8], in test [12], in test [9] and in [10] was above 100 µM throughout.

On to `CCOC(=O)C1=C(C)N(c2ccccc2)C2=C(C(=O)N(c3ccccc3)C2c2ccccc2)C1c1ccccc1` (stereo unspecified), for which the TGI in test [1], in [2], in test [3], in [4], in test [5] and in test [8] was above 100 µM throughout. Moreover, the TGI in test [11], in test [12], in [9] and in [10] was above 100 µM throughout.

Regarding `COc1ccc(/C(=C/n2ccnc2)C(=O)c2ccc(OC)c(OC)c2)cc1`, the TGI in test [1], in test [2], in test [3], in test [4], in test [5] and in [8] was above 100 µM in each case. Besides, the TGI in test [12], in test [9] and in test [10] was above 100 µM in each case.

These data come from PubChem BioAssay (NCI).
